Assay results from patent US20230056360A1, “BLOOD-BRAIN-BARRIER SYSTEMS” (priority 2020, published 2023).
Entries after “also recorded” stand apart in the source; their conditions may differ.

Tested on: iBMECs
Experiment: blood-to-brain permeability of fluorescent molecules across iBMEC monolayers on transwells, monoculture or brain region-specific NVUs
Conditions: iBMECs alone or co-cultured over primary rat neural cultures (cortex, striatum, hippocampus, cerebellum, spinal cord); one-way ANOVA, Tukey; result in words
Method: In order to obtain region-specific primary neural cultures, E18 rat embryos were extracted from a pregnant female. Embryos were dissected and several regions of the CNS were separated including cortex, striatum, hippocampus, cerebellum and spinal cord. The regions were enzymatically dissociated into single cells before seeded pre-coated MEA plates and petri dishes, in which they were cultured in Neurobasal medium (Sigma) for two weeks. In order to validate the various primary cell cultures, the cells were stained for the neuronal marker βIII-tubulin and the glial marker GFAP (FIG. 2).
iPSCs were differentiated into iBMECs as previously described. On Day 8 of differentiation, cells were enzymatically dissociated into single cell suspensions and seeded on precoated transwell inserts. 24 hours post seeding, iBMEC inserts were placed on top of primary neural cultures derived from the different CNS regions (FIG. 3) where they were cultured for three additional days.
Fluorescence was measured using a plate reader and calculated into concentrations using a calibration curve with known concentrations. Next, the inventors plotted the chart and extracted the slope for each transwell. Slopes from empty transwells were subtracted from the obtained value and the results were used to calculate the permeability, expressed as 10-5 cm/min.

Row | SMILES | differences in permeability between iBMEC monoculture and NVUs of different brain regions
1 | O=C([O-])c1ccccc1-c1c2ccc(=O)cc-2oc2cc([O-])ccc12.[Na+].[Na+] [sodium fluorescein] | significantly more permeable in the monoculture compared to the NVUs of the cortex, cerebellum, striatum and hippocampus; also recorded: significance differences in permeability were also observed between spinal cord and other NVUs
2 | O=[N+]([O-])c1ccc(N[C@H]2C(O)O[C@H](CO)[C@@H](O)[C@@H]2O)c2nonc12 (stereo partly drawn) [2-NDBG, 2-[N-(7-nitrobenz-2-oxa-1,3-diazol-4-yl)amino]-2-deoxy-D-glucose] | not different between the NVUs
